Experimental data published in paper PMC9860641, “Synthesis, In Vitro α-Glucosidase Inhibitory Activity and Molecular Docking Study of New Benzotriazole-Based Bis-Schiff Base Derivatives” (Pharmaceuticals, 2022).

How the values were obtained:
[1] = biological target: α-glucosidase enzyme (Saccharomyces cerevisiae, UniProt P53341); type: biochemical
Description: To find out the α-glucosidase inhibition, kinetic studies were carried out using different concentrations of the inhibitors (0.0624, 0.3, 0.125, 0.4 mM) and different concentrations of substrate inhibitor (p-nitrophenol R-D maltoside NMP). Samples of 0.1, 0.2, 0.4, 0.8, and 1.0 mM (0.2 mg/mL) concentration were prepared in de-ionized water with the enzyme. PIPES buffer was used to adjust the pH of the solution. This solution was incubated for 30 min at 25 °C and the absorbance was recorded on an ELISA reader in 96-well plates. Kinetic parameters like Vmax, AICs, Km, and R2 were calculated using sigma plot enzyme kinetic software.

Sequence of α-glucosidase enzyme (P53341 whole entry): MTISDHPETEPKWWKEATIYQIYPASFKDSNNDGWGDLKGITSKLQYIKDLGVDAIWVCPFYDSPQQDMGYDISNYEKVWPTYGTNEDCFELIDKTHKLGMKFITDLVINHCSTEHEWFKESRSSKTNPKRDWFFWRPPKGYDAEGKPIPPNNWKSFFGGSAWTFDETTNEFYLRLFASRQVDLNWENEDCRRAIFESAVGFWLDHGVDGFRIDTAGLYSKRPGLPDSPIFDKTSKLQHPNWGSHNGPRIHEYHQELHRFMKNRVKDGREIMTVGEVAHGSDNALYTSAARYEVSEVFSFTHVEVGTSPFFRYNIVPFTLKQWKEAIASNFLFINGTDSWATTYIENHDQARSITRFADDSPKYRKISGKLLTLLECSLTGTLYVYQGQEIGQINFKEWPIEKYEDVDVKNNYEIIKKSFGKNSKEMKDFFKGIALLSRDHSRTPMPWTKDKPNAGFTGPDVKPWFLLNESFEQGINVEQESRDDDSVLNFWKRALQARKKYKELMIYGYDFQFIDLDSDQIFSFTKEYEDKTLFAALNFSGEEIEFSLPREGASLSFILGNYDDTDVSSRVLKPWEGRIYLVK

| SMILES | melting point | other results |
| --- | --- | --- |
| COc1cccc(/C(Cn2nnc3ccccc32)=N\N=C\c2cc(Cl)cc(Cl)c2O)c1 [Compound 1, 2-((E)-(((E)-2-(1H-benzo[d][1,2, 3]triazol-1-yl)-1-(3-methoxyphenyl)ethylidene) hydrazono)methyl)-4,6-dichlorophenol] | 195 to 196 °C | fold lower potency than compound (9) ([1]; comparator compound 9): four-fold |
| COc1cccc(/C(Cn2nnc3ccccc32)=N\N=C\c2cccc([N+](=O)[O-])c2)c1 [Compound 2, 1-((E)-2-(3-methoxyphenyl)-2-(((E)-3-nitrobenzylidene)hydrazono)ethyl)-1H-benzo[d] [1,2, 3]triazole] | 192 to 193 °C | fold lower potency than compound (12) ([1]; comparator compound 12): two-fold |
| O=[N+]([O-])c1cccc(/C=N/N=C(/Cn2nnc3ccccc32)c2ccc(Br)cc2)c1 [Compound 3, 1-((E)-2-(4-bromophenyl)-2-(((E)-3-nitrobenzylidene)hydrazono)ethyl)-1H-benzo[d] [1,2, 3]triazole] | 196 to 197 °C |  |
| Brc1ccc(/C(Cn2nnc3ccccc32)=N\N=C\c2c3ccccc3cc3ccccc23)cc1 [Compound 4, 1-((E)-2-(((E)-anthracen-9-ylmethylene)hydrazono)-2-(4-bromophenyl)ethyl)-1H-benzo[d] [1,2, 3]triazole] | 201 to 202 °C | potency against α-glucosidase compared with standard acarbose (in words) [1]: less potent than standard acarbose |
| Oc1c(Cl)cc(Cl)cc1/C=N/N=C(/Cn1nnc2ccccc21)c1ccc(Br)cc1 [Compound 5, 2-((E)-(((E)-2-(1H-benzo[d][1,2, 3]triazol-1-yl)-1-(4-bromophenyl)ethylidene) hydrazono)methyl)-4,6-dichlorophenol] | 196 to 197 °C | fold lowering of enzymatic activity relative to scaffold (10) ([1]; comparator scaffold 10): four-fold |
| O=[N+]([O-])c1ccc(/C=N/N=C(/Cn2nnc3ccccc32)c2ccc(Br)cc2)cc1 [Compound 6, 1-((E)-2-(4-bromophenyl)-2-(((E)-4-nitrobenzylidene)hydrazono)ethyl)-1H-benzo[d] [1,2, 3]triazole] | 196 to 197 °C | potency relative to compound (3) ([1]; comparator compound 3): half |
| Brc1ccc(/C(Cn2nnc3ccccc32)=N\N=C\c2ccc3ccccc3c2)cc1 [Compound 7, 1-((E)-2-(4-bromophenyl)-2-(((E)-naphthalen-2-ylmethylene)hydrazono)ethyl)-1H-benzo[d] [1,2, 3]triazole] | 196 to 197 °C | potency against α-glucosidase compared with standard acarbose (in words) [1]: less potent than standard acarbose |
| O=Cc1ccc(/C=N/N=C(/Cn2nnc3ccccc32)c2ccc(Br)cc2)cc1 [Compound 8, 4-((E)-(((E)-2-(1H-benzo[d][1,2, 3]triazol-1-yl)-1-(4-bromophenyl)ethylidene) hydrazono)methyl)benzaldehyde] | 193 to 194 °C | potency against α-glucosidase compared with standard acarbose (in words) [1]: less potent than standard acarbose |
| O=[N+]([O-])c1cccc(/C(Cn2nnc3ccccc32)=N\N=C\c2cc(Cl)cc(Cl)c2O)c1 [Compound 9, 2-((E)-(((E)-2-(1H-benzo[d][1,2, 3]triazol-1-yl)-1-(3-nitrophenyl)ethylidene) hydrazono)methyl)-4,6-dichlorophenol] | 197 to 198 °C | potency relative to standard acarbose (fold greater) ([1]; compared to standard acarbose): nine-fold |
| O=[N+]([O-])c1ccc(/C(Cn2nnc3ccccc32)=N\N=C\c2cc(Cl)cc(Cl)c2O)cc1 [Compound 10, 2-((E)-(((E)-2-(1H-benzo[d][1,2, 3]triazol-1-yl)-1-(4-nitrophenyl)ethylidene) hydrazono)methyl)-4,6-dichlorophenol] | 197 to 198 °C |  |
| O=[N+]([O-])c1ccc(/C(Cn2nnc3ccccc32)=N\N=C\c2cccc([N+](=O)[O-])c2)cc1 [Compound 11, 1-((E)-2-(((E)-3-nitrobenzylidene)hydrazono)-2-(4-nitrophenyl)ethyl)-1H-benzo[d] [1,2, 3]triazole] | 191 to 192 °C |  |
| O=[N+]([O-])c1ccc(/C=N/N=C(/Cn2nnc3ccccc32)c2ccc([N+](=O)[O-])cc2)cc1 [Compound 12, 1-((E)-2-(((E)-4-nitrobenzylidene)hydrazono)-2-(4-nitrophenyl)ethyl)-1H-benzo[d] [1,2, 3]triazole] | 191 to 192 °C | inhibition profile relative to scaffold (11) ([1]; comparator scaffold 11): half |
| Oc1c(Cl)cc(Cl)cc1/C=N/N=C(/Cn1nnc2ccccc21)c1ccc(Cl)cc1Cl [Compound 13, 2-((E)-(((E)-2-(1H-benzo[d][1,2, 3]triazol-1-yl)-1-(2,4-dichlorophenyl)ethylidene) hydrazono)methyl)-4,6-dichlorophenol] | 199 to 200 °C | fold enhancement of α-glucosidase activity relative to compound (1) ([1]; comparator compound 1): three-fold |
| O=[N+]([O-])c1cccc(/C=N/N=C(/Cn2nnc3ccccc32)c2ccc(Cl)cc2Cl)c1 [Compound 14, 1-((E)-2-(2,4-dichlorophenyl)-2-(((E)-3-nitrobenzylidene)hydrazono)ethyl)-1H-benzo[d] [1,2, 3]triazole] | 194 to 195 °C |  |
| O=[N+]([O-])c1ccc(/C=N/N=C(/Cn2nnc3ccccc32)c2ccc(Cl)cc2Cl)cc1 [Compound 15, 1-((E)-2-(2,4-dichlorophenyl)-2-(((E)-4-nitrobenzylidene)hydrazono)ethyl)-1H-benzo[d] [1,2, 3]triazole] | 194 to 195 °C |  |
| Clc1ccc(/C=N/N=C(/Cn2nnc3ccccc32)c2ccc(Br)cc2)cc1Cl [Compound 17, 1-((E)-2-(4-bromophenyl)-2-(((E)-3,4-dichlorobenzylidene)hydrazono)ethyl)-1H-benzo[d] [1,2, 3]triazole] | 198 to 199 °C | potency against α-glucosidase compared with standard acarbose (in words) [1]: less potent than standard acarbose |
| O=[N+]([O-])c1ccc(/C(Cn2nnc3ccccc32)=N\N=C\c2ccc(Cl)c(Cl)c2)cc1 [Compound 19, 1-((E)-2-(((E)-3,4-dichlorobenzylidene)hydrazono)-2-(4-nitrophenyl)ethyl)-1H-benzo[d] [1,2, 3]triazole] | 194 to 195 °C |  |
| O=[N+]([O-])c1ccc(/C(Cn2nnc3ccccc32)=N\N=C\c2ccc(O)cc2)cc1 [Compound 20, 4-((E)-(((E)-2-(1H-benzo[d][1,2, 3]triazol-1-yl)-1-(4-nitrophenyl)ethylidene) hydrazono)methyl)phenol] | 190 to 191 °C |  |
